Assay [1] relates to bacterial vaginosis (BV). Put plainly: Clinical assessment of BV patients after therapy (Amsel criteria, Nugent score, recurrence). In kind it is in vivo, human. The text has this: Patients. Five African American participants were followed at the Vaginitis Clinic at Wayne State University and had been treated for recurrent episodes symptomatic bouts of BV. Patients were enrolled after protocol explanation and written informed consent was obtained. The study was endorsed by the Human Investigational Review Board of Wayne State University. At the time of enrollment, patients were diagnosed with florid symptomatic acute BV, characterized by the presence of at least 3 of the 4 Amsel criteria (homogeneous vaginal discharge, pH elevated above 4.5, clue cells>20%, positive whiff test) and Nugent scores of at least 8.
At this immediate PT visit, patients were given Catch-All Sample Collection Swabs (Epicentre Biotechnologies, Madison, WI) and 15 mL conical tubes for vaginal specimen self-collection. […] Samples from a previously characterized group of recurrent BV patients, sampled before and after treatment, were also evaluated by Lb-qPCR. Reichman et al., Sexually Transmitted Diseases 36: 732-734, 2009.

Assay [2] concerns vaginal microbiota (PB-primer target groups). Put plainly: PB-qPCR microbial profiles of vaginal swabs of recurrent BV patients (Example 2). The format is in vivo, human. The protocol:
Sample processing, DNA extraction, and qPCR. Microbial gDNA was purified from swabs in 1-2 ml saline or lysis solution by a high SDS/alkaline lysis—phenol extraction protocol as described previously in Lambert and resuspended in 200 μL TE (10 mM Tris, pH 8, 1 mM EDTA). The lysed bacterial gDNA is stable for over one month at room temperature in lysis solution buffer (data not shown) and this buffer prevents changes in titer due to possible stability issues with different strains of bacteria in saline. An aliquot of purified DNA was assayed by qPCR with 18 universal and phylogenetic branch-inclusive (PB) primers and PCR conditions as described previously in Lambert. Additional primers, targeting the Enterococcus genus and its cytolysin gene CyILL, are provided in SEQ ID NOs: 92 and 95 (Enterococcus), and 93 and 96 (cytolysin gene). Each PB-primer targets a branch of the phylogenetic tree, from whole phyla to family or genus, and is far more inclusive than species-specific primers. Relative LB composition of the vaginal microbiome was determined by dividing the Lactobacillaceae titer by the sum of all PB-primers and by using the disclosed LB-blocker approach. Briefly, the LB-blocker approach uses the difference between the quantitative cycles (Cq) of two parallel qPCR reactions with universal primers targeting the 16S rRNA gene, when one of the reactions is in the presence of LB spp.-specific blocking oligomers (LB-blockers) that have been chemically modified to prevent extension and that partially overlap the universal primer binding site, effectively rendering the LB DNA “invisible” to the universal PCR, even when LB gDNA is present at great excess compared to non-LB gDNA, as is common in healthy and PT samples. PB-primers amplicons were selectively sequenced to confirm they were correctly targeted and to identify the dominant species. These were “cleaned” enzymatically as described in Lambert, and Sanger sequenced at Functional Biosciences (Madison, WI). Sequences were uploaded to Ribosomal Database Project II using its Pipeline function; species were identified based on phylogenetic trees constructed in Molecular Evolutionary Genetics Analysis (MEGA5) software.
Calculations. Cq values from qPCR reactions were converted to molecules per reaction by comparing sample Cq values to a standard curve from the same run of Cq values derived from dilutions of an amplicon of known target of known concentration. Molecules per reaction were converted to cells per swab, assuming an average of 5 ribosomal genes per cell and proportioned to the ratio of the volume of the sample used in the DNA prep and the amount of sample used in the qPCR reaction. Delta Cq (ΔCq) values of LB-blocked reaction pairs were calculated as Cq (blocked sample)−Cq (unblocked sample). Differences between patient groups were compared using the t test in (GraphPad software).
In general terms: Quantitative PCR measures a nucleic acid by following its amplification.

In assay [3] the test system is relative LB content of the vaginal microbiome. The assay is described as follows: Lb-qPCR / LbRC: delta Cq of LB-blocked versus unblocked universal qPCR of vaginal samples. In kind it is in vivo, human. The note with it: separate group of recurrent BV patients, FIG. 11. How it is done:
Sample processing, DNA extraction, and qPCR. Microbial gDNA was purified from swabs in 1-2 ml saline or lysis solution by a high SDS/alkaline lysis—phenol extraction protocol as described previously in Lambert and resuspended in 200 μL TE (10 mM Tris, pH 8, 1 mM EDTA). The lysed bacterial gDNA is stable for over one month at room temperature in lysis solution buffer (data not shown) and this buffer prevents changes in titer due to possible stability issues with different strains of bacteria in saline. An aliquot of purified DNA was assayed by qPCR with 18 universal and phylogenetic branch-inclusive (PB) primers and PCR conditions as described previously in Lambert. Additional primers, targeting the Enterococcus genus and its cytolysin gene CyILL, are provided in SEQ ID NOs: 92 and 95 (Enterococcus), and 93 and 96 (cytolysin gene). Each PB-primer targets a branch of the phylogenetic tree, from whole phyla to family or genus, and is far more inclusive than species-specific primers. Relative LB composition of the vaginal microbiome was determined by dividing the Lactobacillaceae titer by the sum of all PB-primers and by using the disclosed LB-blocker approach. […]
Calculations. […] Delta Cq (ΔCq) values of LB-blocked reaction pairs were calculated as Cq (blocked sample)−Cq (unblocked sample). […]

The subject of assay [4] is bacterial vaginosis (BV). The note with it: 121 women with BV successfully treated; cited from earlier work.
[5] abbreviates: P2, 500 mg suppositories, 2 per day for 7 days.
[6] abbreviates: P5, 7 daily 500 mg vaginal suppositories.
Setting [7] is: separate group of recurrent BV patients.

Take `CCC[C@@H]1C[C@@H](C(=O)N[C@@H]([C@H]2O[C@H](SC)[C@H](O)[C@@H](O)[C@H]2O)[C@H](C)Cl)N(C)C1` [clindamycin]: the “Nugent score after treatment” value in the assay on bacterial vaginosis (BV) [1] (P3, Nugent 10 before) came out at 0. Besides, in assay [2] (P3-post), the “Actinobacteridae (G. vaginalis) after treatment, fold lower than P1 or P2” value is given as 10-100 fold; the “Mobiluncus share after treatment” value amounted to 0.4%; the “Share of all other targets after treatment” value is on record as “below 0.01%”.
For the compound `Cc1ncc([N+](=O)[O-])n1CCO` [metronidazole], in the assay on bacterial vaginosis (BV) [1] (P1, daily suppositories 750 mg), the “Clinical status 10 days later” value was “full remission” and the “Day of recurrence of symptomatic BV” value was found to be 94 days. Further, in the assay on bacterial vaginosis (BV) [1] (P1, high dose vaginal), the “Amsel status after treatment” value is recorded as “Amsel negative”. Moreover, the “Nugent score after treatment” value in the assay with bacterial vaginosis (BV) [1] (P1, high dose vaginal, after first and second BV episodes) is 0. Besides, in the assay on bacterial vaginosis (BV) [1] (P1, vaginal 500-750 mg twice weekly), the “Florid episodes of BV in the two previous years in spite of prophylactic therapy” value came out at 4. In the assay with bacterial vaginosis (BV) [1] (P2-post1, oral), the “Amsel status after treatment” value is given as “Amsel negative” and the “Nugent score after treatment” value was 0. Besides, in the assay with bacterial vaginosis (BV) [1] (setting [5]), the “Day symptoms were reported after second treatment” value stood at 152 days and the “Response to second treatment” value is given as “recovered well”. In addition, in the assay with bacterial vaginosis (BV) [1] (P2, 2x500 mg suppositories daily for 7 days), the “Time to recurrence after second treatment (self-reported)” value is “approximately 117 days PT”. Further, in the assay on bacterial vaginosis (BV) [1] (P2, oral 500 mg bid for 7 days), the “Clinical status one week later” value was “asymptomatic” and the “Time of symptomatic recurrence after enrollment” value came to 35 days. Besides, in the assay on bacterial vaginosis (BV) [1] (setting [6]), the “Clinical status 21 days later” value is “asymptomatic in clinical remission” and the “Nugent score 21 days later” value is 4. Moreover, the “Outcome at return within three weeks by Amsel criteria” value in the assay on bacterial vaginosis (BV) [1] (five recurrent BV patients, Nugent scores of 0 except Patient 5) is “clinical cure”. In the assay on bacterial vaginosis (BV) [1] (setting [7]), the “Nugent average after treatment, Post A group” value was 2.2±4.0 and the “Nugent average after treatment, Post B group” value is on record as 0.8±1.2. Moreover, the “Actinobacteridae (G. vaginalis) share after treatment” value in assay [2] (P1-post1) amounted to 2%. Further, the “Lactobacillaceae share of post-treatment samples” value in assay [2] (P1-post1 and -post2, high dose vaginal) is over 97%. Besides, the “Further fold reduction of G. vaginalis” value in assay [2] (P1-post2 versus P1-post1) is on record as about 100 fold. Besides, in assay [2] (P2-post1, oral), the “Actinobacteridae (G. vaginalis) share after treatment” value is given as under 0.5% and the “Share of 6-8 other targets after treatment” value was “under 0.1%”. In assay [3], the “delta Cq score after treatment, Post A group” value is on record as 4.1±2.2 and the “delta Cq score after treatment, Post B group” value is 17±6. Moreover, in the assay on bacterial vaginosis (BV) [4], the “Women who recurred within one year” value is given as 58% and the “Women who returned to abnormal vaginal profiles” value was 69%.

Source of the values: patent publication US12509734B2, “Systems and methods to assess microbiomes and treatments thereof” (priority 2013, dated 2025).
